Data from PubChem BioAssay (NCI).
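Test compounds were applied to cells in 96-well plates for 48 hours at 5 doses. Abbreviation: GI50, concentration required for 50% inhibition of growth. TGI: concentration producing complete growth inhibition.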

These compounds were tested on MDA-MB-468 breast (assay: NCI tumour cell line growth inhibition, 48 h).

Going from `Fc1ccc(Nc2nc3nonc3nc2Nc2ccc(I)cc2)cc1` to `COC(=O)Nc1nc2ccc(C(=O)c3ccc(F)cc3)cc2[nH]1`, the GI50 rises from 0.251 µM to 0.812 µM (3.2-fold).

First: CN(C)C1CN(C(=O)c2cc(-c3ccc4ncnc(N5CCc6cc(F)c(Cl)cc65)c4c3)cnc2N)C1
Second: COc1ncc(-c2ccc3nccc(C#CCCCCC(=O)NO)c3c2)cc1NS(=O)(=O)c1ccc(F)cc1F
The GI50 of the first is 12-fold higher: 0.254 µM for the first, 0.0214 µM for the second.

Compared with `CC/C(=C(/c1ccc(OCCN(C)C)cc1)c1ccc(OC(=O)CCCCCCCCC(=O)c2c(C)[nH]c(/C=C3\N=C(c4ccc[nH]4)C=C3OC)c2C)cc1)c1ccccc1`, `CCCCOC(=O)c1c(C)[nH]c(/C=C2\N=C(c3ccc[nH]3)C=C2OC)c1C` is 8-fold lower in GI50: 3.62 µM for the first, 0.451 µM for the second.

Going from `CCN1C(=O)N(CC)C2SC(N/N=C/c3cccs3)=NC21` (stereo not drawn) to `COc1cc(N(CCCl)CCCl)ccc1/C=N\NC(=O)c1cccnc1`, the GI50 rises from 0.253 µM to 1.28 µM (5.1-fold).

Going from `Cc1cc(C)c2c(c1)N(C)c1ncnc(-n3cnc4cc(C)ccc43)c1CC2C` (stereo not drawn) to `COc1c(B(O)O)cccc1-c1nc2c(F)cc3n[nH]c(C)c3c2c2c1CCCC2`, the GI50 falls from 3.24 µM to 0.994 µM (3.3-fold).

`Nc1n[nH]c2ccc([C@@H]3Nc4ccc5cn[nH]c5c4[C@H]4C5CCC(C5)[C@@H]34)cc12` (stereo partly drawn) and `COc1cc(N2CCC(N)CC2)ccc1Nc1ncc(Cl)c(-c2c[nH]c3ccccc23)n1` are within 1.5-fold of each other in GI50: 0.33 µM for the first, 0.415 µM for the second.

First: COc1cc(C(=O)NN=C2c3ccccc3-c3ccccc32)cc(OC)c1OC
Second: O=C1c2ccc3c4c(ccc(c24)C(=O)N1CCNCc1ccccc1)C(=O)N(CCNCc1ccccc1)C3=O
The GI50 of the first is 2.2-fold higher: 3.47 µM for the first, 1.59 µM for the second.

Compared with `CCCCCCCCCCCCCCCCCCOc1ccccc1COP(=O)(O)OOCC[N+](C)(C)C`, `Cn1c(=O)c(Oc2ccc(F)cc2F)cc2cnc(NCC(C)(C)O)nc21` is higher in GI50: 0.493 µM for the first, over 25 µM for the second.

Going from `O=C1OCC2=C1C(c1cccc(Cl)c1)c1cc3c(cc1N2CCO)CCC3` (stereo not drawn) to `Nc1c(C(=O)Nc2cccc(C(F)(F)F)c2)sc2nc3c(cc12)CCCCCC3`, the GI50 rises from 0.0231 µM to 0.798 µM (35-fold).

Compared with `O=C(Nc1cccc(-n2cc(-c3ccncc3)c(-c3ccc(Cl)c(O)c3)n2)c1)Nc1ccc(Cl)c(Cl)c1`, `CC[C@@H](C)/C=C(C)/C=C/C(=O)c1c(O)c(-c2ccc(O)cc2)cn(OC2CC(=O)CCC(C)OC(=O)CC2O)c1=O` (stereo partly drawn) is 3.1-fold lower in GI50: 0.729 µM for the first, 0.239 µM for the second.

Going from `CCc1ccc(SC2c3ccc(N(CC)CC)cc3Oc3nc(N)c(C#N)c(N)c32)cc1` (stereo not drawn) to `CC[C@@]1(O)C(=O)OCc2c1cc1n(c2=O)Cc2c-1nc1cc(F)c(C)c3c1c2[C@@H](NC(=O)CO)CC3`, the GI50 falls from 1.58 µM to under 0.01 µM.

Compared with `COC(=O)[C@]12CC[C@@H](C)[C@H](C)[C@@H]1C1=CC[C@@H]3[C@@](C)(CC#N)C4=C(C[C@@]3(C)[C@]1(C)CC2)OC[C@]4(C)C=O`, `CC(=O)N[C@@H](Cc1ccc(OP(=O)(O)O)cc1)C(=O)N[C@H]1CCC(=O)N2CCC[C@@H](C(=O)NC3CCc4ccccc43)N2C1=O` (stereo partly drawn) is higher in GI50: 10.7 µM for the first, over 25 µM for the second.

Going from `Fc1ccc(Nc2nc3nonc3nc2Nc2ccc(I)cc2)cc1` to `COC(=O)Nc1nc2ccc(C(=O)c3ccc(F)cc3)cc2[nH]1`, the TGI rises from 0.79 µM to over 100 µM.

Compared with `CN(C)C1CN(C(=O)c2cc(-c3ccc4ncnc(N5CCc6cc(F)c(Cl)cc65)c4c3)cnc2N)C1`, `COc1ncc(-c2ccc3nccc(C#CCCCCC(=O)NO)c3c2)cc1NS(=O)(=O)c1ccc(F)cc1F` is 9.2-fold lower in TGI: 1.07 µM for the first, 0.116 µM for the second.

Compared with `CC/C(=C(/c1ccc(OCCN(C)C)cc1)c1ccc(OC(=O)CCCCCCCCC(=O)c2c(C)[nH]c(/C=C3\N=C(c4ccc[nH]4)C=C3OC)c2C)cc1)c1ccccc1`, `CCCCOC(=O)c1c(C)[nH]c(/C=C2\N=C(c3ccc[nH]3)C=C2OC)c1C` is lower in TGI: over 100 µM for the first, 2.02 µM for the second.

Compared with `CCN1C(=O)N(CC)C2SC(N/N=C/c3cccs3)=NC21` (stereo not drawn), `COc1cc(N(CCCl)CCCl)ccc1/C=N\NC(=O)c1cccnc1` is 2.4-fold lower in TGI: 16.6 µM for the first, 6.83 µM for the second.

First: Cc1cc(C)c2c(c1)N(C)c1ncnc(-n3cnc4cc(C)ccc43)c1CC2C (stereo not drawn)
Second: COc1c(B(O)O)cccc1-c1nc2c(F)cc3n[nH]c(C)c3c2c2c1CCCC2
The TGI of the first is 6.6-fold higher: 27 µM for the first, 4.12 µM for the second.

First: Nc1n[nH]c2ccc([C@@H]3Nc4ccc5cn[nH]c5c4[C@H]4C5CCC(C5)[C@@H]34)cc12 (stereo partly drawn)
Second: COc1cc(N2CCC(N)CC2)ccc1Nc1ncc(Cl)c(-c2c[nH]c3ccccc23)n1
The TGI of the first is 2.9-fold higher: 5.04 µM for the first, 1.74 µM for the second.

Going from `COc1cc(C(=O)NN=C2c3ccccc3-c3ccccc32)cc(OC)c1OC` to `O=C1c2ccc3c4c(ccc(c24)C(=O)N1CCNCc1ccccc1)C(=O)N(CCNCc1ccccc1)C3=O`, the TGI falls from 41.9 µM to 3.1 µM (14-fold).

First: CCCCCCCCCCCCCCCCCCOc1ccccc1COP(=O)(O)OOCC[N+](C)(C)C
Second: Cn1c(=O)c(Oc2ccc(F)cc2F)cc2cnc(NCC(C)(C)O)nc21
The TGI of the first is lower: 1.47 µM for the first, over 25 µM for the second.

First: O=C1OCC2=C1C(c1cccc(Cl)c1)c1cc3c(cc1N2CCO)CCC3 (stereo not drawn)
Second: Nc1c(C(=O)Nc2cccc(C(F)(F)F)c2)sc2nc3c(cc12)CCCCCC3
The TGI of the first is 4-fold lower: 0.84 µM for the first, 3.32 µM for the second.

First: O=C(Nc1cccc(-n2cc(-c3ccncc3)c(-c3ccc(Cl)c(O)c3)n2)c1)Nc1ccc(Cl)c(Cl)c1
Second: CC[C@@H](C)/C=C(C)/C=C/C(=O)c1c(O)c(-c2ccc(O)cc2)cn(OC2CC(=O)CCC(C)OC(=O)CC2O)c1=O (stereo partly drawn)
The TGI of the first is 5-fold higher: 4.25 µM for the first, 0.852 µM for the second.

Going from `CCc1ccc(SC2c3ccc(N(CC)CC)cc3Oc3nc(N)c(C#N)c(N)c32)cc1` (stereo not drawn) to `CC[C@@]1(O)C(=O)OCc2c1cc1n(c2=O)Cc2c-1nc1cc(F)c(C)c3c1c2[C@@H](NC(=O)CO)CC3`, the TGI falls from 3.06 µM to under 0.01 µM.

`COC(=O)[C@]12CC[C@@H](C)[C@H](C)[C@@H]1C1=CC[C@@H]3[C@@](C)(CC#N)C4=C(C[C@@]3(C)[C@]1(C)CC2)OC[C@]4(C)C=O` and `CC(=O)N[C@@H](Cc1ccc(OP(=O)(O)O)cc1)C(=O)N[C@H]1CCC(=O)N2CCC[C@@H](C(=O)NC3CCc4ccccc43)N2C1=O` (stereo partly drawn) cannot be ordered by TGI: 42.3 µM for the first, over 25 µM for the second.
